Common to all, as to assay type: cell-based
For one experiment, the system named is C. albicans SC5314 cells. The experiment is described as follows: Cell viability by propidium iodide (PI) staining, PBS vs YPAD. The following applies: 1 μM. As for the experimental part: To determine whether the caspofungin relocalization and apparent cell damage and death is a feature of caspofungin (and not only of the fluorescent caspofungin probe 1), cell viability was followed using propidium iodide (PI), a dye normally excluded from metabolically active cells.
Cell viability was compared in the presence and absence of 1 μM unlabeled caspofungin, using cells incubated either in PBS or in YPAD. […] Thus, cells exposed to caspofungin in nutrient-rich conditions become permeable to PI, an indicator of cell death. This observation explains the non-specific distribution of probe 1 in the cytoplasm after prolonged incubation (FIG. 7A). It is also consistent with the idea that plasma membrane permeabilization and cell death are likely accompanied by the loss of structural integrity of organelles, including the vacuoles detected here.

The test system of another experiment is C. glabrata ATCC 90030. The experiment is described as follows: MIC, broth double dilution. To be noted: Nakaseomyces glabratus, ATCC90030. The essentials: (§1)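 Susceptibility was measured as the MIC by broth double dilution.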
The subject of experiment [1] is C. glabrata T-190 (11-304). The experiment is described as follows: MIC, broth double dilution. The following applies: Nakaseomyces glabratus. The essentials: as §1
The subject of a further experiment is C. albicans SN152. Briefly: MIC, broth double dilution. The following applies: Candida albicans; strain no. 5, C. albicans SN152; read-out: MIC. An outline of the steps: as §1
Another experiment deals with C. glabrata ATCC 2001. The experiment is described as follows: MIC, broth double dilution. The following applies: Nakaseomyces glabratus, ATCC2001. The essentials:
as §1

The test system of experiment [2] is C. glabrata T-984 (11-078). The experiment is described as follows: MIC, broth double dilution. The following applies: Nakaseomyces glabratus. The essentials: as §1
The subject of another experiment is C. glabrata EF1620. Briefly: MIC, broth double dilution. To be noted: Nakaseomyces glabratus; strain no. 31, C. glabrata EF1620; read-out: MIC. The essentials:
as §1

The test system of a further experiment is C. glabrata ATCC 66032. Briefly: MIC, broth double dilution. To be noted: Nakaseomyces glabratus, ATCC66032; strain no. 40, C. glabrata ATCC 66032; read-out: MIC. An outline of the steps:
as §1

Another experiment deals with C. glabrata CST34. The experiment is described as follows: MIC, broth double dilution. To be noted: Nakaseomyces glabratus; strain no. 21, C. glabrata CST34 (parental); read-out: MIC. The essentials: as §1
The test system of experiment [3] is C. glabrata T-193 (11-282). Briefly: MIC, broth double dilution. The following applies: Nakaseomyces glabratus. The essentials:
as §1

In a further experiment the test system is C. glabrata CST109. Briefly: MIC, broth double dilution. To be noted: Nakaseomyces glabratus; strain no. 18, C. glabrata CST109 (parental); read-out: MIC. An outline of the steps:
as §1

The subject of experiment [4] is C. glabrata T-983 (11-079). The experiment is described as follows: MIC, broth double dilution. To be noted: Nakaseomyces glabratus. The essentials:
as §1

A further experiment has as its system C. albicans ATCC 24433. Briefly: MIC, broth double dilution. To be noted: Candida albicans, ATCC24433; strain no. 6, C. albicans ATCC 24433; read-out: MIC. The essentials: as §1
For a further experiment, the system named is C. glabrata T-192 (1775). Briefly: MIC, broth double dilution. The following applies: Nakaseomyces glabratus. The essentials:
as §1

Another experiment relates to C. glabrata BG2. The experiment is described as follows: MIC, broth double dilution. The following applies: Nakaseomyces glabratus; strain no. 34, C. glabrata BG2; read-out: MIC. The essentials: as §1
The subject of a further experiment is C. albicans CAF2-1. The experiment is described as follows: microbe, parasite or virus in culture. To be noted: Candida albicans, SC5314. An outline of the steps:
as §1

For experiment [5], the system named is C. albicans SC5314 and SN152. The experiment is described as follows: Competition for cellular uptake with probe 1, flow cytometry. To be noted: added simultaneously with probe 1; caspofungin 1 μM, 10 μM; fluconazole 10 μM. As for the experimental part:
To determine if caspofungin competes for cellular uptake with fluorescent probe 1, both the drug and the probe were added simultaneously to cultures of strains SC5314 and SN152. The uptake of probe 1 was measured by flow cytometry every 15 minutes for 1 hour (FIG. 6B). […] No effect on the uptake of probe 1 was detected in cells co-treated with the antifungal azole drug fluconazole, which inhibits the biosynthesis of fungal membrane sterol, ergosterol.
Background: A flow cytometer gives signals particle by particle.

Converted amounts (≈) assume the structure as drawn.

Turning to `CC[C@H](C)C[C@H](C)CCCCCCCCC(=O)N[C@H]1C[C@@H](O)[C@@H](NCCN)NC(=O)[C@@H]2[C@@H](O)CCN2C(=O)[C@H]([C@H](O)CCN)NC(=O)[C@H]([C@H](O)[C@@H](O)c2ccc(O)cc2)NC(=O)[C@@H]2C[C@@H](O)CN2C(=O)[C@H]([C@@H](C)O)NC1=O` [Caspofungin], the “cell viability, PI staining” value is on record as “cells excluded the PI stain” in the experiment with C. albicans SC5314 cells (PBS); “viable” with C. albicans SC5314 cells (YPAD, after 15 min); “stained brightly with PI” in the experiment on C. albicans SC5314 cells (YPAD, after 2 h). Besides, the MIC in the experiment on C. glabrata ATCC 90030 came out at 0.125 µg/mL (≈ 0.114 µM); in [1], 0.063 µg/mL (≈ 0.0576 µM); in the experiment on C. albicans SN152, 0.031 µg/mL (≈ 0.0284 µM); in the experiment with C. glabrata ATCC 2001, 0.125 µg/mL (≈ 0.114 µM); in experiment [2], 0.063 µg/mL (≈ 0.0576 µM); with C. glabrata EF1620, 0.063 µg/mL (≈ 0.0576 µM). The MIC with C. glabrata ATCC 66032 amounted to 0.125 µg/mL (≈ 0.114 µM); in the experiment with C. glabrata CST34, 0.063 µg/mL (≈ 0.0576 µM); in experiment [3] it was 0.125 µg/mL (≈ 0.114 µM); in the experiment on C. glabrata CST109 it was 0.125 µg/mL (≈ 0.114 µM); in experiment [4], 0.063 µg/mL (≈ 0.0576 µM); in the experiment with C. albicans ATCC 24433, 0.063 µg/mL (≈ 0.0576 µM). In addition, the MIC against C. glabrata T-192 (1775) was 0.063 µg/mL (≈ 0.0576 µM); with C. glabrata BG2 it was 0.125 µg/mL (≈ 0.114 µM); against C. albicans CAF2-1, 0.063 µg/mL (≈ 0.0576 µM). The “effect on the uptake of probe 1” value in experiment [5] is recorded as “reduced the uptake of probe 1 in a dose-dependent manner”.

These data come from patent publication US20230173018A1, “CASPOFUNGIN DERIVATIVES AND ASSAYS FOR EVALUATING ANTIFUNGAL TREATMENT EFFICACY” (priority 2020, published 2023).
